The source of these data is article PMC11170969, “Photoaffinity probe‐based antimalarial target identification of artemisinin in the intraerythrocytic developmental cycle of Plasmodium falciparum” (iMeta, 2024).

Test [1] concerns the target T1, PfEGF1‐α (Plasmodium falciparum, UniProt Q8I0P6).
T1 construct: gene PF3D7_1357000; recombinant, pET-28a(+), E. coli BL21(DE3), Ni-NTA
T1 sequence (Q8I0P6 1-443): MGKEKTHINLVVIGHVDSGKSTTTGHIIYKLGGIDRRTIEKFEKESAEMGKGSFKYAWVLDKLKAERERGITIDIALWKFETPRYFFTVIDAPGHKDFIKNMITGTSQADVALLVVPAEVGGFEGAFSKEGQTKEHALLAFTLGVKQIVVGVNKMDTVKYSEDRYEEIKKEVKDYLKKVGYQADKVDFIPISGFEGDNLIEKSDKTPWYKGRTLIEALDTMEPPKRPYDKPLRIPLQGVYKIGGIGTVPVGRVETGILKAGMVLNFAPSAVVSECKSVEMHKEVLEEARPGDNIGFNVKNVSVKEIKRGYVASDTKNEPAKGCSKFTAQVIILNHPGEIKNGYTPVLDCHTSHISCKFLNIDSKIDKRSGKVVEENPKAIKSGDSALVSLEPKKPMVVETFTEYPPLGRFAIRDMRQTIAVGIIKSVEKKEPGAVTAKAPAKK
Briefly: DARTS; competition with APP photolabelling. The class given is binding. The following applies: DARTS: 5 μM protein, room temperature, 2 h, pronase; competition: 10 μM ATS.

The target in test [2] is T2, PfGAPDH (Plasmodium falciparum, UniProt Q8IKK7).
T2 construct: gene PF3D7_1462800; recombinant, pET-28a(+), E. coli BL21(DE3), Ni-NTA
T2 sequence (Q8IKK7 entry or part of it): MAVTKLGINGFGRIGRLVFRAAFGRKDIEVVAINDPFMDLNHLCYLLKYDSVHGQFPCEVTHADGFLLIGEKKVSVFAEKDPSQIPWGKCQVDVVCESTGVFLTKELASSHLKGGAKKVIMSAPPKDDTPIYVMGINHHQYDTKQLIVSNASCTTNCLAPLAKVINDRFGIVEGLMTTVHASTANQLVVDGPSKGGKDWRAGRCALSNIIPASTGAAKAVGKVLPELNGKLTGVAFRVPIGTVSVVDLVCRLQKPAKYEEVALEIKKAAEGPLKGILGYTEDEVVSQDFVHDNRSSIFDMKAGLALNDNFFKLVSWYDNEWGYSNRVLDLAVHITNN
Briefly: enzyme activity inhibition. The class given is biochemical. The note with it: binding also shown by DARTS; activity assay conditions not stated in main text; covalent Glu59 adduct suggested by MS in a separate test with hemin and ascorbate.

Test [3] deals with T3, PfLDH (Plasmodium falciparum, UniProt Q76NM3).
T3 construct: gene PF3D7_1324900; recombinant, pET-28a(+), E. coli BL21(DE3), Ni-NTA
T3 sequence (Q76NM3 1-316): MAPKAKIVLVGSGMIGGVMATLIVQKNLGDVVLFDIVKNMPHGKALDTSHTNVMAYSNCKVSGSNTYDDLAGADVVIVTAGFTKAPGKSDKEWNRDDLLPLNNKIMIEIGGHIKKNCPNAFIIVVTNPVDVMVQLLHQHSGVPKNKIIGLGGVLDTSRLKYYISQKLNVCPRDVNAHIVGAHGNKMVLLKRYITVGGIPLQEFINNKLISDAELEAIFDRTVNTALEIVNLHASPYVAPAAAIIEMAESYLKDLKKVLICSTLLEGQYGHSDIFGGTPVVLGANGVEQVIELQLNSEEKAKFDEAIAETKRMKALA
Briefly: enzyme activity inhibition. The class given is biochemical. The following applies: binding also shown by DARTS; activity assay conditions not stated in main text.

Test [4] concerns the target T4, PfOAT (Plasmodium falciparum, UniProt Q6LFH8).
T4 construct: gene OAT; recombinant, pET-28a(+), E. coli BL21(DE3), Ni-NTA
T4 sequence (Q6LFH8 1-414): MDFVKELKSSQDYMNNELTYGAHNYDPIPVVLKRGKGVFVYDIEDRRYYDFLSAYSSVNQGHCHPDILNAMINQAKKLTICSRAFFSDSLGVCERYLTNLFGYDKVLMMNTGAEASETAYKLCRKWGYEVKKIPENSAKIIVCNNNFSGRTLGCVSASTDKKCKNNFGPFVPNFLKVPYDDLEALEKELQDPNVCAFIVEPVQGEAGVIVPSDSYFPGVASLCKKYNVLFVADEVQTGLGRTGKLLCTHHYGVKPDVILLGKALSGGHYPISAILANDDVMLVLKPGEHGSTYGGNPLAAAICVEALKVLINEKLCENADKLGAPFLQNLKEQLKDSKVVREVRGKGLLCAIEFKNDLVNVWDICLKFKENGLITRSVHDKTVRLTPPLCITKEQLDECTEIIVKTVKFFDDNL
Briefly: OAT activity assay kit, absorbance at […] nm. Format: biochemical. The following applies: without heme activation (also tested with heme activation); 1 h preincubation; methods name the inhibitor ART, 0-80 μM.

Test [5] concerns the target T5, PfTIM (Plasmodium falciparum, UniProt Q7KQM0).
T5 construct: gene TPI; recombinant, pET-28a(+), E. coli BL21(DE3), Ni-NTA
Description: enzyme activity inhibition. The class given is biochemical. The following applies: binding also shown by DARTS; activity assay conditions not stated in main text.

T5 sequence (Q7KQM0 whole entry): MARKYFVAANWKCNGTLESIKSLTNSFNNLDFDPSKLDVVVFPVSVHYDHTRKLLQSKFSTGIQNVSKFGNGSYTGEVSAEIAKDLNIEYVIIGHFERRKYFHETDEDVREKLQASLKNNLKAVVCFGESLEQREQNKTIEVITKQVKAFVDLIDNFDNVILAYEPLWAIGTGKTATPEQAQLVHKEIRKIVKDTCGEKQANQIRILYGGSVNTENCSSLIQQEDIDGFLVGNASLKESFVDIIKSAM

On to `C[C@H]1[C@H](OC(=O)CCC(=O)O)O[C@@H]2O[C@@]3(C)CC[C@H]4[C@H](C)CC[C@@H]1[C@@]24OO3` [ATS, artesunate], for which the “DARTS; competition with APP photolabelling” value in test [1] is listed as “the PfEGF1‐α proteins became more resistant to proteolysis after incubation with ATS”. In addition, the half-maximal inhibitory concentration result in test [2], in test [3] and in test [5] was “the half‐maximal inhibitory concentrations were at low micromolar concentrations” each time. Further, the “OAT activity assay kit, absorbance at 340 nm” value in test [4] was “ATS can significantly inhibit its enzyme activity in both heme‐activated and nonactivated states”.
